For one data set, the system named is adenosine signaling. The data set is described as follows: Functional inhibition of adenosine signaling in cancer patients. Format: in vivo, human. The protocol:
(§1) Adenosine signaling via A2A receptor (A2AR) on immune cells suppresses anti-tumor immunity and limits the efficacy of immunotherapy, chemotherapy, CAR-T, and vaccines. […] In embodiments, CD73 expression, CD8 infiltration, TREG distribution, and gene expression signatures are evaluated in serial tumor biopsy specimens.

For data set [1], the system named is peripheral T cell receptor repertoire. Put plainly: Deep sequencing of TCRb in PBMCs, Morisita Index and clonality. Format: in vivo, human. The note with it: subjects with baseline peripheral blood clonality within normal healthy range (<0.2); PBMCs day 0 vs day 28 to 56. As for the experimental part: FIGS. 3A-3C: Peripheral blood mononuclear cells (PBMCs) were collected at day 0 and between day 28 and 56. Deep sequencing of TCRb and Moristia and clonality calculations were performed by Adaptive Biotechnologies (Seattle, Wash., USA). T cell receptor (TCR) repertoire clonality was assessed.
Clonality is a measure of the dominance of specific T cell clones within a sample. It can range from 0-1, with 0 meaning each clone appears only once and 1 meaning the sample has only copies of a single clone. […] Clonality<0.2 is within the normal range, >0.2 means that a few clones dominate the sample. Clonality is conceptually the opposite of diversity. A clonality<0.2 is diverse because there a lot of different clones and the sample is not dominated by one or a few clone.
A Morisita Index score indicates the similarity between two samples. […] The Morisita Index can range from 0-1, with 0 meaning the samples are completely different (no shared clones) and a score of 1 meaning the samples are the same. In embodiments, a Morisita Index score>0.9 means very little change (e.g., within the range of sample to sample variation), while a Morisita Index score<0.9 means there was a change within the sample.

The test system of another data set is syngeneic tumor models. Put plainly: Syngeneic tumor models in mice, daily treatment. The note with it: multiple syngeneic tumor models. Format: in vivo. As for the experimental part:
as §1

Data set [2] deals with non-small cell lung, melanoma, renal, triple negative breast, and other (bladder, prostate, head and neck, colorectal) tumors. Put plainly: Phase 1/1b clinical trial, clinical activity / tumor regression. The note with it: single agent. Format: in vivo, human. As for the experimental part: The waterfall plot includes all subjects from the clinical trial with available data, including all dosing levels and disease indications. CT scans of target lesions were performed prior to treatment and every 8 weeks post-treatment or at optimal time points. Target lesions were measured and the sum of longest dimensions (SLD) calculated. Subjects with regression of target tumor lesions are enriched for CD8 infiltration of tumors at baseline. […] The best change in SLD for each subject is shown in the waterfall plot colored by the percentage of CD8 infiltration in the center of the pre-treatment biopsy sample as measured by immunohistochemistry. […] A cutoff of 1% (rather than 4% for FIG. 1A) was used to classify subjects enriched for CD8 infiltration.
There were five prior regimens including TKIs, mTOR inhibitor and nivolumab. The patient ultimately failed each prior therapy.
as §1

A short description of data set [3]: Phase 1/1b clinical trial, safety and tolerability (Step 1). Format: in vivo, human. As to conditions: 48 patients treated in Step 1.
Source text: FIG. 5 is an illustration of an exemplary Phase 1/1B clinical trial design.
Expansion cohorts include renal cell and non-small cell lung cancer
FIG. 12 provides a summary of data regarding treatment-related adverse events.
as §1

As for `Cc1ccc(-c2nc(N)nc3c2nnn3Cc2cccc(COC3CCOC3)n2)o1` (stereo not shown) [CPI-444], the “inhibition of adenosine signaling” value in the data set on adenosine signaling is recorded as “functional inhibition of adenosine signaling”. Further, the “Morisita Index (change in peripheral TCR repertoire)” value in data set [1] was under 0.9. Further, the “inhibition of tumor growth” value in the data set with syngeneic tumor models was “dose-dependent inhibition of tumor growth”. In data set [2] (including patients who previously failed anti-PD-1 therapy), the clinical activity entry is on record as “Evidence of clinical activity”. Also, the “tumor response (FIG. 6, FIGS. 7A-7B)” value in data set [2] (nivolumab refractory renal cancer, five prior regimens including TKIs, mTOR inhibitor and nivolumab) is reported as “tumor regression”. In data set [3], the “Grade 3 or 4 treatment related adverse events” value was 1 and the tolerability result is “well tolerated”.

(Values after US11040040B2, “Methods of treating cancer” (Corvus Pharmaceuticals, Inc., priority 2017, dated 2021).)
